Results published in paper PMC5218480 (PLoS ONE, 2017).

Test system: MV-4-11 cells
Test: Gene expression microarray analysis (Affymetrix PrimeView) and GSEA
Assay type: cell-based, human
Set-up: RFU PODN (11730768_x_at) / Fold change /veh PODN (11730768_x_at) / RFU LINC00158 (11744669_a_at) / Fold change /veh LINC00158 (11744669_a_at) / RFU DUSP10 (11751237_a_at) / Fold change /veh DUSP10 (11751237_a_at) / RFU ID3 (11757404_x_at) / Fold change /veh ID3 (11757404_x_at) / RFU PLEKHG5 (11737974_s_at) / Fold change /veh PLEKHG5 (11737974_s_at) / RFU LRRC4B (11730491_at) / Fold change /veh LRRC4B (11730491_at) / RFU GIMAP4 (11747438_a_at) / Fold change /veh GIMAP4 (11747438_a_at) / RFU KRT8 (11758183_x_at) / Fold change /veh KRT8 (11758183_x_at) / RFU CNN1 (11734310_a_at) / Fold change /veh CNN1 (11734310_a_at) / RFU VPS37D (11726825_at) / Fold change /veh VPS37D (11726825_at) / RFU C10orf10 (11716522_x_at) / Fold change /veh C10orf10 (11716522_x_at) / RFU KIR2DL2 /// KIR2DL4 /// KIR2DL5A /// KIR2DL5B /// KIR2DS1 /// KIR2DS2 /// KIR2DS3 /// KIR2DS4 /// KIR3DL3 /// KIR3DL3 /// KIR3DS1 (11738374_at) / Fold change /veh KIR2DL2 /// KIR2DL4 /// KIR2DL5A /// KIR2DL5B /// KIR2DS1 /// KIR2DS2 /// KIR2DS3 /// KIR2DS4 /// KIR3DL3 /// KIR3DL3 /// KIR3DS1 (11738374_at) / RFU C1QL1 (11718748_at) / Fold change /veh C1QL1 (11718748_at) / RFU TMPRSS4 (11747572_a_at) / Fold change /veh TMPRSS4 (11747572_a_at) / RFU HAMP (11756126_x_at) / Fold change /veh HAMP (11756126_x_at) / RFU RNFT2 (11725882_a_at) / Fold change /veh RNFT2 (11725882_a_at) / RFU NR4A2 (11747474_a_at) / Fold change /veh NR4A2 (11747474_a_at) / RFU ABCC12 (11746883_a_at) / Fold change /veh ABCC12 (11746883_a_at) / RFU TMEM136 (11760407_x_at) / Fold change /veh TMEM136 (11760407_x_at) / RFU CLDN22 /// WWC2 (11732394_at) / Fold change /veh CLDN22 /// WWC2 (11732394_at) / RFU HLA-DPB1 (11760878_x_at) / Fold change /veh HLA-DPB1 (11760878_x_at) / RFU SPINT1 (11716480_a_at) / Fold change /veh SPINT1 (11716480_a_at) / RFU GAP43 (11754022_s_at) / Fold change /veh GAP43 (11754022_s_at) / RFU A4GNT (11735810_at) / Fold change /veh A4GNT (11735810_at) / RFU PRB3 (11715151_x_at) / Fold change /veh PRB3 (11715151_x_at) / RFU TUBB4B (11761932_at) / Fold change /veh TUBB4B (11761932_at) / RFU CAPN14 (11732068_a_at) / Fold change /veh CAPN14 (11732068_a_at) / RFU TMCC2 (11721928_a_at) / Fold change /veh TMCC2 (11721928_a_at) / RFU IRGQ (11745062_a_at) / Fold change /veh IRGQ (11745062_a_at) / RFU FAM174B (11720279_a_at) / Fold change /veh FAM174B (11720279_a_at) / RFU TMPRSS4 (11748680_a_at) / Fold change /veh TMPRSS4 (11748680_a_at) / RFU FAM212B (11763350_a_at) / Fold change /veh FAM212B (11763350_a_at) / RFU PLEKHG5 (11743358_a_at) / Fold change /veh PLEKHG5 (11743358_a_at) / RFU ZSCAN30 (11745921_a_at) / Fold change /veh ZSCAN30 (11745921_a_at) / RFU CMKLR1 (11741424_a_at) / Fold change /veh CMKLR1 (11741424_a_at) / RFU LOC101060620 /// MAPK8IP1 (11723275_at) / Fold change /veh LOC101060620 /// MAPK8IP1 (11723275_at) / RFU SPTSSB (11747773_x_at) / Fold change /veh SPTSSB (11747773_x_at) / RFU PRSS12 (11739890_at) / Fold change /veh PRSS12 (11739890_at) / RFU BIN1 (11741810_x_at) / Fold change /veh BIN1 (11741810_x_at) / RFU WNT11 (11732464_a_at) / Fold change /veh WNT11 (11732464_a_at) / RFU C10orf10 (11716521_a_at) / Fold change /veh C10orf10 (11716521_a_at) / RFU C5orf56 (11738089_at) / Fold change /veh C5orf56 (11738089_at) / RFU CYB561 (11721691_x_at) / Fold change /veh CYB561 (11721691_x_at) / RFU ANKRD19P (11752326_a_at) / Fold change /veh ANKRD19P (11752326_a_at) / RFU OR2T12 /// OR2T33 /// OR2T8 (11738714_s_at) / Fold change /veh OR2T12 /// OR2T33 /// OR2T8 (11738714_s_at) / RFU VCAN (11748164_a_at) / Fold change /veh VCAN (11748164_a_at) / RFU JSRP1 (11732532_at) / Fold change /veh JSRP1 (11732532_at) / RFU KRTAP10-11 (11738290_x_at) / Fold change /veh KRTAP10-11 (11738290_x_at) / RFU MYO3A (11730013_a_at) / Fold change /veh MYO3A (11730013_a_at) / RFU EBF3 (11725865_a_at) / Fold change /veh EBF3 (11725865_a_at) / RFU CAMK2N1 (11719241_x_at) / Fold change /veh CAMK2N1 (11719241_x_at) / RFU C5orf56 (11738088_a_at) / Fold change /veh C5orf56 (11738088_a_at) / RFU OLFML3 (11715873_a_at) / Fold change /veh OLFML3 (11715873_a_at) / RFU LOC100653217 /// NTM (11731650_a_at) / Fold change /veh LOC100653217 /// NTM (11731650_a_at) / RFU MAPK11 (11762145_a_at) / Fold change /veh MAPK11 (11762145_a_at) / RFU FIZ1 (11724087_x_at) / Fold change /veh FIZ1 (11724087_x_at) / RFU OASL (11726364_x_at) / Fold change /veh OASL (11726364_x_at) / RFU SOX15 (11748057_x_at) / Fold change /veh SOX15 (11748057_x_at) / RFU CD79A (11719716_a_at) / Fold change /veh CD79A (11719716_a_at) / RFU HIST1H1D (11736915_at) / Fold change /veh HIST1H1D (11736915_at) / RFU CASKIN2 (11723855_a_at) / Fold change /veh CASKIN2 (11723855_a_at) / RFU LOC730098 (11760151_x_at) / Fold change /veh LOC730098 (11760151_x_at) / RFU OR4N2 (11742367_at) / Fold change /veh OR4N2 (11742367_at) / RFU PRRT2 (11749266_a_at) / Fold change /veh PRRT2 (11749266_a_at) / RFU SNX32 (11753110_a_at) / Fold change /veh SNX32 (11753110_a_at) / RFU CDHR5 (11726645_a_at) / Fold change /veh CDHR5 (11726645_a_at) / RFU RCAN1 (11760418_a_at) / Fold change /veh RCAN1 (11760418_a_at) / RFU FAM167A (11723789_a_at) / Fold change /veh FAM167A (11723789_a_at) / RFU FAM26E (11764081_at) / Fold change /veh FAM26E (11764081_at) / RFU ISYNA1 (11749810_s_at) / Fold change /veh ISYNA1 (11749810_s_at) / RFU ACY1 (11761880_at) / Fold change /veh ACY1 (11761880_at) / RFU 11764098_at / Fold change /veh 11764098_at / RFU SAMD14 (11745864_x_at) / Fold change /veh SAMD14 (11745864_x_at) / RFU NPB (11741838_a_at) / Fold change /veh NPB (11741838_a_at) / RFU TMPRSS6 (11731388_a_at) / Fold change /veh TMPRSS6 (11731388_a_at) / RFU KRTAP10-2 (11738614_at) / Fold change /veh KRTAP10-2 (11738614_at) / RFU ARHGAP8 /// PRR5-ARHGAP8 (11727945_x_at) / Fold change /veh ARHGAP8 /// PRR5-ARHGAP8 (11727945_x_at) / RFU KRTAP5-7 /// NADSYN1 (11734609_at) / Fold change /veh KRTAP5-7 /// NADSYN1 (11734609_at) / RFU RASL12 (11751679_a_at) / Fold change /veh RASL12 (11751679_a_at) / RFU CDKN2B (11736163_a_at) / Fold change /veh CDKN2B (11736163_a_at) / RFU PRF1 (11729649_at) / Fold change /veh PRF1 (11729649_at) / RFU, ZNF638 /// ZNF638-IT1 / Fold change vs veh, ZNF638 /// ZNF638-IT1 / RFU, PANK3 / Fold change vs veh, PANK3 / RFU, SH3YL1 / Fold change vs veh, SH3YL1 / RFU, ZEB2 / Fold change vs veh, ZEB2 / RFU, NRIP1 / Fold change vs veh, NRIP1 / RFU, PTTG1IP / Fold change vs veh, PTTG1IP / RFU, CAPN2 / Fold change vs veh, CAPN2 / RFU, MED14 / Fold change vs veh, MED14 / RFU, SNORA58 / Fold change vs veh, SNORA58 / RFU, C1orf63 / Fold change vs veh, C1orf63 / RFU, LRRFIP1 / Fold change vs veh, LRRFIP1 / RFU, NDUFAF7 / Fold change vs veh, NDUFAF7 / RFU, SLC12A2 / Fold change vs veh, SLC12A2 / RFU, IBTK / Fold change vs veh, IBTK / RFU, ESF1 / Fold change vs veh, ESF1 / Fold change vs veh, TMEM50B / RFU, TAOK1 / Fold change vs veh, TAOK1 / RFU, ACBD3 / Fold change vs veh, ACBD3 / RFU, TMA16 / Fold change vs veh, TMA16 / RFU, RWDD3 / Fold change vs veh, RWDD3 / RFU, BCAT1 / Fold change vs veh, BCAT1 / RFU, EDEM3 / Fold change vs veh, EDEM3 / RFU, TMEM33 / Fold change vs veh, TMEM33 / RFU, WDR75 / Fold change vs veh, WDR75 / RFU, AHCTF1 / Fold change vs veh, AHCTF1 / RFU, TFRC / Fold change vs veh, TFRC / RFU, ZDHHC17 / Fold change vs veh, ZDHHC17 / RFU, NOM1 / Fold change vs veh, NOM1 / RFU, ARL8B / Fold change vs veh, ARL8B / RFU, ZBTB11 / Fold change vs veh, ZBTB11 / RFU, TAMM41 / Fold change vs veh, TAMM41 / RFU, KIAA1704 /// LOC100996395 / Fold change vs veh, KIAA1704 /// LOC100996395 / RFU, ING1 / Fold change vs veh, ING1 / RFU, TRMT61B / Fold change vs veh, TRMT61B / RFU, FUBP3 / Fold change vs veh, FUBP3 / RFU, TP53 / Fold change vs veh, TP53 / RFU, TNKS2 / Fold change vs veh, TNKS2 / RFU, ZFP14 / Fold change vs veh, ZFP14 / RFU, ACTR2 / Fold change vs veh, ACTR2 / RFU, PPP3R1 / Fold change vs veh, PPP3R1 / RFU, PIK3R1 / Fold change vs veh, PIK3R1 / RFU, HNRNPA1 / Fold change vs veh, HNRNPA1 / RFU, RNF170 / Fold change vs veh, RNF170 / RFU, ZNF28 / Fold change vs veh, ZNF28 / RFU, RNGTT / Fold change vs veh, RNGTT / RFU, OGT / Fold change vs veh, OGT / RFU, BRD1 / Fold change vs veh, BRD1 / RFU, MARS / Fold change vs veh, MARS / RFU, ZNF655 / Fold change vs veh, ZNF655 / RFU, FAHD1 / Fold change vs veh, FAHD1 / RFU, BDP1 / Fold change vs veh, BDP1 / RFU, LRRCC1 / Fold change vs veh, LRRCC1 / RFU, ARID1A / Fold change vs veh, ARID1A / RFU, ZNF146 / Fold change vs veh, ZNF146 / RFU, ZNF330 / Fold change vs veh, ZNF330 / RFU, GPN3 / Fold change vs veh, GPN3 / RFU, C9orf123 / Fold change vs veh, C9orf123 / RFU, N4BP2L2 / Fold change vs veh, N4BP2L2 / RFU, ARFIP1 / Fold change vs veh, ARFIP1 / RFU, FAM179B / Fold change vs veh, FAM179B / RFU, BCL10 / Fold change vs veh, BCL10 / RFU, UHRF1BP1L / Fold change vs veh, UHRF1BP1L / RFU, BET1 / Fold change vs veh, BET1 / RFU, CNOT2 / Fold change vs veh, CNOT2 / RFU, ZNF268 / Fold change vs veh, ZNF268 / Fold change vs veh, ZNF507 / RFU, DGCR2 / Fold change vs veh, DGCR2 / RFU, WDSUB1 / Fold change vs veh, WDSUB1 / Fold change vs veh, HSP90B1 /// MIR3652 / RFU, ADSS / Fold change vs veh, ADSS / RFU, GK / Fold change vs veh, GK / RFU, ZNF148 / Fold change vs veh, ZNF148 / RFU, TAF9 / Fold change vs veh, TAF9 / RFU, SLC1A5 / Fold change vs veh, SLC1A5 / RFU, SLMO2 / Fold change vs veh, SLMO2 / RFU, ABCC4 / Fold change vs veh, ABCC4 / RFU, LOC101060439 /// RAP1B / Fold change vs veh, LOC101060439 /// RAP1B / RFU, RFX7 / Fold change vs veh, RFX7 / RFU, GTPBP10 / Fold change vs veh, GTPBP10 / RFU, CNEP1R1 / Fold change vs veh, CNEP1R1 / RFU, BIVM-ERCC5 /// ERCC5 / Fold change vs veh, BIVM-ERCC5 /// ERCC5 / RFU, ILF3 / Fold change vs veh, ILF3 / RFU 11762660_at / Fold change /veh 11762660_at / RFU VCAN (11757783_s_at) / Fold change /veh VCAN (11757783_s_at) / RFU DDX43 (11728927_at) / Fold change /veh DDX43 (11728927_at) / RFU KRT8 (11758188_x_at) / Fold change /veh KRT8 (11758188_x_at) / RFU NKD1 (11759106_at) / Fold change /veh NKD1 (11759106_at) / RFU SRD5A1 (11742802_a_at) / Fold change /veh SRD5A1 (11742802_a_at) / RFU TPSAB1 /// TPSB2 (11721975_s_at) / Fold change /veh TPSAB1 /// TPSB2 (11721975_s_at) / RFU GSTM3 (11746129_a_at) / Fold change /veh GSTM3 (11746129_a_at) / RFU IL23R (11737362_x_at) / Fold change /veh IL23R (11737362_x_at) / RFU TMEM51 (11727254_a_at) / Fold change /veh TMEM51 (11727254_a_at) / RFU PIWIL2 (11732686_x_at) / Fold change /veh PIWIL2 (11732686_x_at) / RFU ORM1 (11744905_x_at) / Fold change /veh ORM1 (11744905_x_at) / RFU CCDC152 (11743942_at) / Fold change /veh CCDC152 (11743942_at) / RFU ECM1 (11717891_a_at) / Fold change /veh ECM1 (11717891_a_at) / RFU IL23R (11748794_a_at) / Fold change /veh IL23R (11748794_a_at) / RFU TNFAIP8L3 (11732012_x_at) / Fold change /veh TNFAIP8L3 (11732012_x_at) / RFU MBOAT4 (11741988_at) / Fold change /veh MBOAT4 (11741988_at) / RFU 11764193_at / Fold change /veh 11764193_at / RFU TMEM53 (11763286_at) / Fold change /veh TMEM53 (11763286_at) / RFU MAGEB2 (11727129_at) / Fold change /veh MAGEB2 (11727129_at) / RFU TMEM200A (11744735_a_at) / Fold change /veh TMEM200A (11744735_a_at) / RFU CCDC152 (11751479_a_at) / Fold change /veh CCDC152 (11751479_a_at) / RFU FAM211A (11726209_a_at) / Fold change /veh FAM211A (11726209_a_at) / RFU RGS16 (11746705_a_at) / Fold change /veh RGS16 (11746705_a_at) / RFU VCAN (11755009_s_at) / Fold change /veh VCAN (11755009_s_at) / RFU RHOB (11743442_s_at) / Fold change /veh RHOB (11743442_s_at) / RFU RGS16 (11720943_a_at) / Fold change /veh RGS16 (11720943_a_at) / RFU RGS16 (11720944_at) / Fold change /veh RGS16 (11720944_at) / RFU, VPS4B / Fold change vs veh, VPS4B / RFU, CREB1 / Fold change vs veh, CREB1 / RFU, DNAJC13 / Fold change vs veh, DNAJC13 / RFU, GNAQ / Fold change vs veh, GNAQ / RFU, CDK5R1 / Fold change vs veh, CDK5R1 / RFU, ZRANB3 / Fold change vs veh, ZRANB3 / RFU, CUL4A / Fold change vs veh, CUL4A / RFU, CCNY / Fold change vs veh, CCNY / RFU, UFL1 / Fold change vs veh, UFL1 / RFU, COG3 / Fold change vs veh, COG3 / RFU, DIAPH2 / Fold change vs veh, DIAPH2 / RFU, SKA2 / Fold change vs veh, SKA2 / RFU, AFF3 / Fold change vs veh, AFF3 / RFU, LMF1 / Fold change vs veh, LMF1 / RFU, IPO11 / Fold change vs veh, IPO11 / RFU, DFFB / Fold change vs veh, DFFB / RFU, FOXP1 / Fold change vs veh, FOXP1 / RFU, CARD8 / Fold change vs veh, CARD8 / RFU, STRN3 / Fold change vs veh, STRN3 / RFU, ADK / Fold change vs veh, ADK / RFU, RASSF2 / Fold change vs veh, RASSF2 / RFU, WIPF1 / Fold change vs veh, WIPF1 / RFU, LARP1B / Fold change vs veh, LARP1B / RFU, RASA1 / Fold change vs veh, RASA1 / RFU, RB1 / Fold change vs veh, RB1 / RFU, PPFIA1 / Fold change vs veh, PPFIA1 / RFU, MAT2A / Fold change vs veh, MAT2A / RFU, CCT5 / Fold change vs veh, CCT5 / RFU, WDR92 / Fold change vs veh, WDR92 / RFU, CUX1 / Fold change vs veh, CUX1 / RFU, TTC7A / Fold change vs veh, TTC7A / RFU, TMEM135 / Fold change vs veh, TMEM135 / RFU, DEPTOR / Fold change vs veh, DEPTOR / RFU, CPM / Fold change vs veh, CPM / RFU, DNAJB6 / Fold change vs veh, DNAJB6 / RFU, CACNA2D3 / Fold change vs veh, CACNA2D3 / RFU, DTX4 / Fold change vs veh, DTX4 / RFU, TFCP2 / Fold change vs veh, TFCP2 / RFU, GMCL1 /// GMCL1P1 / Fold change vs veh, GMCL1 /// GMCL1P1 / RFU, AEBP2 / Fold change vs veh, AEBP2 / RFU, SNHG1 /// SNORD22 /// SNORD25 /// SNORD26 /// SNORD27 /// SNORD28 /// SNORD29 /// SNORD31 / Fold change vs veh, SNHG1 /// SNORD22 /// SNORD25 /// SNORD26 /// SNORD27 /// SNORD28 /// SNORD29 /// SNORD31 / Fold change (Aza/veh), C12orf56 (ProbeSet 11735607_a_at) / Fold change (ACY-1035/veh), C12orf56 (ProbeSet 11735607_a_at) / Fold change (Aza/veh), FGFR1OP (ProbeSet 11751329_s_at) / Fold change (ACY-1035/veh), FGFR1OP (ProbeSet 11751329_s_at) / Fold change (Aza/veh), VPS36 (ProbeSet 11739960_a_at) / Fold change (ACY-1035/veh), VPS36 (ProbeSet 11739960_a_at) / RFU SYPL1 (11715823_x_at) / Fold change /veh SYPL1 (11715823_x_at) / RFU IGFBP7 (11715501_s_at) / Fold change /veh IGFBP7 (11715501_s_at) / RFU REEP3 (11722064_at) / Fold change /veh REEP3 (11722064_at) / RFU IGLL1 (11728026_x_at) / Fold change /veh IGLL1 (11728026_x_at): dose or concentration left out as unconfirmed
Details: MV-4-11 cells, 48 hours

`Nc1ccc(-c2cccs2)cc1NC(=O)c1ccc2c(c1)cc(C1CC1)n2CCN1CCOCC1` [ACY-1035] was tested, and the “Fold change /veh KIR2DL2 /// KIR2DL4 /// KIR2DL5A /// KIR2DL5B /// KIR2DS1 /// KIR2DS2 /// KIR2DS3 /// KIR2DS4 /// KIR3DL3 /// KIR3DL3 /// KIR3DS1 (11738374_at)” value was 0.96.
